What was measured:
Format in all cases: biochemical
[1] = tested on: clot formation and fibrinolysis in human citrate plasma; test: Clot formation and fibrinolysis test (CL-test)
Protocol: The effects of the […] on overall hemostasis potential by means of clot formation and fibrinolysis test (CL-test) were further tested based on the continuous measurement of the changes in optical transmittance over time, as described by Kostka et al. and Sikora et al.. These experiments were conducted using 470 µL of three-fold diluted human citrate plasma, 10 µL of the tested compounds, and 10 µL t-PA (final concentration in a sample 220 ng/mL). The clot formation was triggered by thrombin (10 µL, final concentration 0.5 IU/mL). The clot formation and lysis curves were determined at a wavelength of 405 nm with a spectrophotometer (Cecil CE 2021; London, UK) with circulating thermostated water (37 °C) and a Model 300 Electronic Stirrer (Rank Brothers Ltd., Cambridge, UK). The experiments were conducted in multiplicate (n = 5–7), and the results are presented as mean ± SD.
The received graphs were analyzed using dedicated software to determine the kinetic parameters of clot formation, stabilization, and fibrinolysis. The following parameters of clot formation were determined: Tt—thrombin time (s), Fmax—maximum clotting (%T), Tf—plasma clotting time (s), Fvo—initial plasma clotting velocity (%T/min), Sr—area under the clot formation curve (%Txmin). The parameters of the clot stabilization phase comprised Tc—clot stabilization time (s), Sc—area under the curve of stable clot formation (%Txmin). The parameters of fibrinolysis comprised Lmax—maximum lysis (%T), Tl—fibrinolysis time (s), Lvo—initial clot fibrinolysis velocity (%T/min), Sf—area under the fibrinolysis curve (%Txmin). Additionally, the overall potential of clot formation and fibrinolysis (CLAUC, (%Txmin)) and total time of the process of clot formation and fibrinolysis (T, (s)) were also estimated.

factor X = biological target: T1, factor X (Homo sapiens, UniProt P00742); test: Factor X activity
T1 construct: 50 µL of four-fold diluted PPP, 50 μL of deficient plasma factor X, 10 μL of the examined compound; from tissue; host or cells: platelet-poor plasma (PPP), mixed with factor X-depleted plasma (Bio-Ksel)
Protocol: The activity of FX was measured optically using deficient plasma factor X [75]. The content of each sample was as follows: 50 µL of four-fold diluted PPP, 50 μL of deficient plasma factor X, 10 μL of the examined compound, and 100 µL PT reagent. The control samples contained 10 μL of distilled water and methanol (1:1). The measurement of PT time was recorded using a CoagChrom-3003 coagulometer (Bio-Ksel, Grudziadz, Poland). The activity of factor X was counted using a calibration curve (R^2 = 0.999) performed on a calibrator diluted in the range 1:5–1:80 [76]. The variation in plasma coagulation time is proportional to the concentration and activity of factor X in the patient plasma treated with the tested compounds. The coefficient of variability for the method was calculated as CV = 1.80%. The reference values for factor X activity ranged from 77–131%.

[2] = tested on: human plasma (platelet poor plasma); test: Basic coagulation tests: PT, INR, APTT, TT; conditions: for TT: thrombin 3.0 UNIH/mL
Protocol: The blood was collected into vacuum tubes stuffed with 3.2% buffered sodium citrate. Platelet poor plasma (PPP) was obtained by centrifugation at 3000× g for 10 min at room temperature using a Micro 22R centrifuge (Hettich Zentrifugen, Tuttlingen, Germany). The obtained PPP was stored in small aliquots for up to one month at –30° C. Before each experiment, PPP was restored at 37 °C for 15 min. Once thawed, the PPP was not frozen again nor used for retesting.
The effects of biguanidines (1–5) on the basic coagulation parameters (PT, INR, APTT, and TT) were carried out using a CoagChrom-3003 coagulometer (Bio-Ksel, Grudziądz, Poland), according to the routine laboratory diagnostic procedure. The studies were performed in multiplicate (n = 4–7). The control samples containing distilled water and methanol (1:1) were also included.
The results are presented as mean ± standard deviation (SD). The methods were validated, and coefficients of variability for all experiments were calculated (PT: CV = 10.25%, APTT: CV = 8.55%, TT: CV = 4.87%). The reference values for each test are as follows: PT: 9.7–14.6 s; APTT: 26.7–40.0 s; TT: 14.0–18.0 s for 3.0 UNIH/mL of thrombin.

T1 sequence (P00742 41-488): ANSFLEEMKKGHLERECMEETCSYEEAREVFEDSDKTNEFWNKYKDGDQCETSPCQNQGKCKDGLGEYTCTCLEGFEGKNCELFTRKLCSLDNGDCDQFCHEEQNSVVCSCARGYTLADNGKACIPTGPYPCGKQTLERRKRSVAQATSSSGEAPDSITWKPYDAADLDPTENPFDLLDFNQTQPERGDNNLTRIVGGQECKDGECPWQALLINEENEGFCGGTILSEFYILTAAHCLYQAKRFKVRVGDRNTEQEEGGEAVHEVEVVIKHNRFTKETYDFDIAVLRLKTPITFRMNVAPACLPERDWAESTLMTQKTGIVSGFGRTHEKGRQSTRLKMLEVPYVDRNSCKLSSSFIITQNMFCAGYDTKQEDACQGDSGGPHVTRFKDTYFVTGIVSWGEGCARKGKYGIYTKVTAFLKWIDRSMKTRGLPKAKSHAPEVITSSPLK

CCCCS(=O)(=O)NC(N)=NC(=N)N(C)C [Compound 1]
Fmax—maximum clotting ([1]; 0.06 mM): 73.71 ± 5.89 %T | Fvo—initial plasma clotting velocity ([1]; 0.06 mM): 230.57 ± 34.38 %T/min | Lmax—maximum lysis ([1]; 0.06 mM): 70.23 ± 10.26 %T | Lvo—initial clot fibrinolysis velocity ([1]; 0.06 mM): 21.40 ± 6.16 %T/min | Sc—area under the curve of a stable clot formation ([1]; 0.06 mM): 389.25 ± 160.80 %T x min | Sf—area under the clot formation curve ([1]; 0.06 mM): 50.97 ± 7.65 %T x min | Sl (area under the fibrinolysis curve) ([1]; 0.06 mM): 193.67 ± 107.75 %T x min | S—overall potential of clot formation and fibrinolysis (CLAUC) ([1]; 0.06 mM): 633.89 ± 269.28 %T x min | Tc—clot stabilization time ([1]; 0.06 mM): 324.86 ± 130.79 s | Tf—plasma clotting time ([1]; 0.06 mM): 58.61 ± 9.61 s | Tl—fibrinolysis time ([1]; 0.06 mM): 253.57 ± 104.13 s | Tt—thrombin time ([1]; 0.06 mM): 18.97 ± 3.08 s | T—total time of the process of clot formation and fibrinolysis ([1]; 0.06 mM): 656.01 ± 236.60 s | Fmax—maximum clotting ([1]; 0.3 mM): 71.97 ± 6.78 %T | Fvo—initial plasma clotting velocity ([1]; 0.3 mM): 227.86 ± 37.81 %T/min | Lmax—maximum lysis ([1]; 0.3 mM): 69.09 ± 10.62 %T | Lvo—initial clot fibrinolysis velocity ([1]; 0.3 mM): 18.53 ± 7.15 %T/min | Sc—area under the curve of a stable clot formation ([1]; 0.3 mM): 407.13 ± 154.90 %T x min | Sf—area under the clot formation curve ([1]; 0.3 mM): 52.45 ± 10.08 %T x min | Sl (area under the fibrinolysis curve) ([1]; 0.3 mM): 186.37 ± 104.97 %T x min | S—overall potential of clot formation and fibrinolysis (CLAUC) ([1]; 0.3 mM): 645.95 ± 264.51 %T x min | Tc—clot stabilization time ([1]; 0.3 mM): 347.71 ± 124.84 s | Tf—plasma clotting time ([1]; 0.3 mM): 61.36 ± 11.85 s | Tl—fibrinolysis time ([1]; 0.3 mM): 260.57 ± 95.60 s | Tt—thrombin time ([1]; 0.3 mM): 16.81 ± 3.05 s | T—total time of the process of clot formation and fibrinolysis ([1]; 0.3 mM): 686.46 ± 226.50 s | Fmax—maximum clotting ([1]; 0.6 mM): 70.77 ± 5.62 %T | Fvo—initial plasma clotting velocity ([1]; 0.6 mM): 217.71 ± 37.42 %T/min | Lmax—maximum lysis ([1]; 0.6 mM): 69.47 ± 6.67 %T | Lvo—initial clot fibrinolysis velocity ([1]; 0.6 mM): 18.64 ± 4.38 %T/min | Sc—area under the curve of a stable clot formation ([1]; 0.6 mM): 388.20 ± 131.19 %T x min | Sf—area under the clot formation curve ([1]; 0.6 mM): 53.53 ± 5.26 %T x min | Sl (area under the fibrinolysis curve) ([1]; 0.6 mM): 178.97 ± 84.17 %T x min | S—overall potential of clot formation and fibrinolysis (CLAUC) ([1]; 0.6 mM): 620.70 ± 216.54 %T x min | Tc—clot stabilization time ([1]; 0.6 mM): 338.00 ± 114.76 s | Tf—plasma clotting time ([1]; 0.6 mM): 63.63 ± 6.31 s | Tl—fibrinolysis time ([1]; 0.6 mM): 267.71 ± 99.31 s | Tt—thrombin time ([1]; 0.6 mM): 16.75 ± 4.87 s | T—total time of the process of clot formation and fibrinolysis ([1]; 0.6 mM): 686.09 ± 216.29 s | Fmax—maximum clotting ([1]; 1.5 mM): 70.21 ± 3.38 %T | Fvo—initial plasma clotting velocity ([1]; 1.5 mM): 193.57 ± 47.31 %T/min | Lmax—maximum lysis ([1]; 1.5 mM): 66.90 ± 8.86 %T | Lvo—initial clot fibrinolysis velocity ([1]; 1.5 mM): 20.23 ± 6.46 %T/min | Sc—area under the curve of a stable clot formation ([1]; 1.5 mM): 389.89 ± 172.66 %T x min | Sf—area under the clot formation curve ([1]; 1.5 mM): 52.36 ± 6.58 %T x min | Sl (area under the fibrinolysis curve) ([1]; 1.5 mM): 159.20 ± 87.92 %T x min | S—overall potential of clot formation and fibrinolysis (CLAUC) ([1]; 1.5 mM): 602.52 ± 263.77 %T x min | Tc—clot stabilization time ([1]; 1.5 mM): 344.29 ± 149.70 s | Tf—plasma clotting time ([1]; 1.5 mM): 64.21 ± 9.03 s | Tl—fibrinolysis time ([1]; 1.5 mM): 236.57 ± 80.20 s | Tt—thrombin time ([1]; 1.5 mM): 21.60 ± 6.05 s | T—total time of the process of clot formation and fibrinolysis ([1]; 1.5 mM): 666.67 ± 234.05 s | Factor X activity (factor X; 0.3 mM): 107.60 ± 4.62% | Factor X activity (factor X; 0.6 mM): 104.20 ± 4.97% | Factor X activity (factor X; 1.5 mM): 97.40 ± 8.05% | APTT ([2]; 0.006 mM): 35.12 ± 4.75 s | INR ([2]; 0.006 mM): 1.04 ± 0.19 | PT ([2]; 0.006 mM): 13.04 ± 2.41 s | TT ([2]; 0.006 mM): 14.03 ± 0.94 s | APTT ([2]; 0.06 mM): 33.36 ± 1.78 s | INR ([2]; 0.06 mM): 1.11 ± 0.23 | PT ([2]; 0.06 mM): 12.78 ± 1.86 s | TT ([2]; 0.06 mM): 12.98 ± 1.08 s | APTT ([2]; 0.3 mM): 33.76 ± 2.53 s | INR ([2]; 0.3 mM): 1.08 ± 0.22 | PT ([2]; 0.3 mM): 13.46 ± 2.71 s | TT ([2]; 0.3 mM): 13.90 ± 1.24 s | APTT ([2]; 0.6 mM): 34.68 ± 3.31 s | INR ([2]; 0.6 mM): 1.05 ± 0.19 | PT ([2]; 0.6 mM): 13.08 ± 2.36 s | TT ([2]; 0.6 mM): 12.64 ± 1.31 s | APTT ([2]; 1.5 mM): 34.68 ± 5.21 s | INR ([2]; 1.5 mM): 1.08 ± 0.23 | PT ([2]; 1.5 mM): 13.48 ± 2.93 s | TT ([2]; 1.5 mM): 13.03 ± 0.86 s

From publication PMC9029893 (International Journal of Molecular Sciences, 2022)
